According to US20240228469A1, “PCSK9 INHIBITORS AND METHODS OF USE THEREOF” (AstraZeneca AB, priority 2022, published 2024):

What was measured:
PCSK9 [1] = biological target: T1, PCSK9 (Homo sapiens, UniProt Q8NBP7, G670E/V474I); experiment: Assay 3 PCSK9 LDL-C uptake assay in HepG2 cells; assay type: cell-based; parameters: TEV site (C); His6 (C); host or cells: added to HepG2 (ATCC #HB-8065); conditions: 125 nM PCSK9, pHrodo Red-LDL, read-out: Assay 3 LDL uptake potency
From the text: This assay measures for PCSK9 antagonist activity based on a test compound's capacity to restore LDL-C-uptake in HepG2 cells. The assay is based on exogenous PCSK9 and LDL-C complexed with a pH-sensitive dye. Outside the cells, at neutral pH, the pHrodo Red-LDL is dimly fluorescent but upon LDLR mediated endocytosis it fluoresces brightly. PCSK9 traffics the LDLR to intracellular degradation and reduces uptake of LDL-C. Inhibition of PCSK9 reduces LDLR degradation and the increased LDL-C uptake is quantified by fluorescence microscopy.
• Cell medium: MEM supplemented with 10% FBS, 1×NEAA and Sodium Pyruvate • Assay medium: OptiMem supplemented with penicillin/streptomycin • Cells: HepG2 (ATCC #HB-8065)
• 1. Cryopreserved HepG2 cells were thawed in assay medium and centrifuged for 5 min at 250 g. Supernatant was discarded and the cell pellet resuspended in cell medium and counted with a Nucleocounter. Cells were again centrifuged 5 min at 250 g and the pellet was resuspended to 500000 cells/mL in assay medium. • 2. 20 μL of above cell mix was dispensed into black μclear TC treated 384 well plates with Multidrop Combi and left at room temperature for 20 minutes. • 3. Plates were incubated at 37° C., 5% CO2 for 24 h
• 1. Test compounds were prepared in concentration response in DMSO with a half-log dilution factor in DMSO in Echo 384 LDV plates starting at 10 mM. • 2. 30 nL of above test compounds were dispensed with Echo 655 to cells for a top concentration of 10 μM • 3. 10 μL PCSK9 in assay medium was dispensed to cells with Multidrop Combi for 125 nM final concentration in the wells. • 4. Plates were incubated at 37° C., 5% CO2 for 24 h
• 1. 10 μL pHrodo Red-LDL in assay medium was dispensed to cells with Multidrop Combi for […] • 2. Plates were incubated at 37° C., 5% CO2 and imaged with the Incucyte S3 after 4 h and 24 h
Image data was processed using Incucyte 2021, a software to identify cells and red fluorescent intensity. Screener was used to further process data. Data was normalized as % effect of the signal between median values of the on-plate controls of DMSO and 100 nM Evolocumab according to the formula % effect=−100*(x−DMSO)/(Evolocumab−DMSO) where x equals the measured signal. Concentration response data of the normalized values were fitted using a four-parameter logistic fit.

[2] = biological target: T2, potassium ion channel hERG (Homo sapiens, UniProt Q12809); experiment: Assay 5 hERG assay (patch clamp, CHO cells over-expressing hERG); assay type: cell-based; conditions: SyncroPatch 384PE, room temperature, geometric mean, read-out: Assay 5 (hERG Hu CHO if EPh CR-Syncro) GMean IC50
T2 construct: expressed in transfected cells; host or cells: Chinese hamster ovary K1 (CHO)
Outline: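 hERG currents recorded by automated patch clamp at room temperature in CHO-K1 cells, 6-point cumulative concentrations. SyncroPatch runs used KF-based internal (pH 7.2) and NMDG-containing external solution (pH 7.4), 0.33% DMSO; QPatchII runs used 2% or 0.4% DMSO. Only wells meeting seal-resistance and current-size criteria kept.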

PCSK9 [3] = biological target: T1, PCSK9; experiment: biochemical
[4] = biological target: GSK3β (Glycogen synthase kinase-3 beta) (Homo sapiens, UniProt P49841); experiment: Assay 6 GSK3β assay (ThermoFisher Z-Lyte FRET); assay type: biochemical; conditions: ATP Conc: 10 μM, geometric mean; read-out: Assay 6 (GSK3β FRET-Z-Lyte Cr) GMean IC50
Outline: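 Z-Lyte FRET: 0.22-0.92 ng kinase with 2 μM Ser/Thr 09 peptide in HEPES pH 7.5, MgCl2, EGTA, 60 min at room temperature, then 60 min development. Compounds in 1% DMSO, 10-point 3-fold series from 10 μM; sigmoidal dose-response fit.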

T1 sequence (Q8NBP7 with tags, fused parts or gaps V474I/G670E): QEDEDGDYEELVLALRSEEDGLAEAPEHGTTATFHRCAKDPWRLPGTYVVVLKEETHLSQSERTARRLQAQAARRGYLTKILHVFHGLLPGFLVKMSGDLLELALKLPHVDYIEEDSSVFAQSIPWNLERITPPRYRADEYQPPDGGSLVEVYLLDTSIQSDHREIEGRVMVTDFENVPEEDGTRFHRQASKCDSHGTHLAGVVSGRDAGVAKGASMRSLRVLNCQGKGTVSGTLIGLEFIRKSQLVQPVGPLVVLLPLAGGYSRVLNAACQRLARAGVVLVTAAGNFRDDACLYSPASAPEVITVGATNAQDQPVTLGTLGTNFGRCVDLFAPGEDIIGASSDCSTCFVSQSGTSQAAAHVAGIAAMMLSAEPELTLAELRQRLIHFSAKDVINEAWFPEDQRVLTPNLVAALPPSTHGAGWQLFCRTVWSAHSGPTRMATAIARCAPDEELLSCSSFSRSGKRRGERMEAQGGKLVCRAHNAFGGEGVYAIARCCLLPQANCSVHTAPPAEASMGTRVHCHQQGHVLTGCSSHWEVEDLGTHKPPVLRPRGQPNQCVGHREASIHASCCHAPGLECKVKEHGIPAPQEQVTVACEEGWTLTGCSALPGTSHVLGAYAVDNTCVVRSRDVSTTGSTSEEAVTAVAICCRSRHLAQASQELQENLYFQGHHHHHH
Sequence of GSK3β (Glycogen synthase kinase-3 beta) (P49841 whole entry): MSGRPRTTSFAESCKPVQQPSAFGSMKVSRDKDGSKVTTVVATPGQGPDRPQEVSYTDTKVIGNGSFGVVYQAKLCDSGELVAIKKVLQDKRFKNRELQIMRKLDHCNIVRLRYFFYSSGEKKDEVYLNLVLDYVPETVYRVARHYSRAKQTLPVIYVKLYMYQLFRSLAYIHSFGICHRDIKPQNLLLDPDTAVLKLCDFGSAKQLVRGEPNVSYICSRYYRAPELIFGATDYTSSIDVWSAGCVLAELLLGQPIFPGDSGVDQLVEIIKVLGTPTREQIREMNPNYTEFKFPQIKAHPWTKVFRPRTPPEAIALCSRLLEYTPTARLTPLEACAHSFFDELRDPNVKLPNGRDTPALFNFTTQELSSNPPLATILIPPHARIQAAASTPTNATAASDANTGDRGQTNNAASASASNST
T2 sequence (Q12809 whole entry): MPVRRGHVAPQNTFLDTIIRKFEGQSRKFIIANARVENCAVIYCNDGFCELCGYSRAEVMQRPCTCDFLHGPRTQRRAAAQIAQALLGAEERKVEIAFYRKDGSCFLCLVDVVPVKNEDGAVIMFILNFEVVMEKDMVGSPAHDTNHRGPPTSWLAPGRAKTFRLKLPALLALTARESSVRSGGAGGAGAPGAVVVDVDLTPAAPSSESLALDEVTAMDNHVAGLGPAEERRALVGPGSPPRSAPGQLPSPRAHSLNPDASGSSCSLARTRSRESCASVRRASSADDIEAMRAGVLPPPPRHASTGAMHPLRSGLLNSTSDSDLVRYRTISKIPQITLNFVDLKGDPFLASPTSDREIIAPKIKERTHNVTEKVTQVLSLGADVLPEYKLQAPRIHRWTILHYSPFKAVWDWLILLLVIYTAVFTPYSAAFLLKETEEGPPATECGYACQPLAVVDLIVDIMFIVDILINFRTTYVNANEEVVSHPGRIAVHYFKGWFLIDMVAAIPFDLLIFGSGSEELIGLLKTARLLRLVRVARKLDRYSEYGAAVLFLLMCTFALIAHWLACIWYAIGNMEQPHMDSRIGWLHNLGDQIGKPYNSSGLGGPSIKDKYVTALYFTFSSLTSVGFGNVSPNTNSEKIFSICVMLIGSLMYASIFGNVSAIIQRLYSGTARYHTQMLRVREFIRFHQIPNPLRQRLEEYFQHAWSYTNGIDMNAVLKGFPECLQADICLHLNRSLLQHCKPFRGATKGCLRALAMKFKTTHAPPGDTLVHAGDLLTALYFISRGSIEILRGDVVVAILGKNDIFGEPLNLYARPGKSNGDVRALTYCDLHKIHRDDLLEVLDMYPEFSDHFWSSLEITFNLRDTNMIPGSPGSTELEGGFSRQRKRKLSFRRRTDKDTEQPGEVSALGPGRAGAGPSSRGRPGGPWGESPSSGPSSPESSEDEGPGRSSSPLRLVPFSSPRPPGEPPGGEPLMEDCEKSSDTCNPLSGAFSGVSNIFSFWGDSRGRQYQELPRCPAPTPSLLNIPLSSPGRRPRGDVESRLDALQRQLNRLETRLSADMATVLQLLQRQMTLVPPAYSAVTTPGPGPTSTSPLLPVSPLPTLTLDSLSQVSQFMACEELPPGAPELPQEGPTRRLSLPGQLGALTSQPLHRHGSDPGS

Compound	EC50 (PCSK9 [1]) [nM]	IC50 [2] [nM]	IC50 (PCSK9 [3]) [nM]	IC50 [4] [nM]
O=C(NC1COC1)c1cnc(N[C@H]2CC[C@H](Nc3ccc(-n4cccc(Cl)c4=O)cn3)C2)nn1 [Example 157, 3-(((1S,3S)-3-((3-Chloro-2-oxo-2H-[1,3′-bipyridin]-6′-yl)amino)cyclopentyl)amino)-N-(oxetan-3-yl)-1,2,4-triazine-6-carboxamide]	100	> 40100	2.1	7780
O=C(NC1COC1)c1cnc(N[C@H]2CC[C@H](Nc3ccc(-n4cc(Cl)ccc4=O)cn3)C2)nn1 [Example 158, 3-(((1S,3S)-3-((5-Chloro-2-oxo-2H-[1,3′-bipyridin]-6′-yl)amino)cyclopentyl)amino)-N-(oxetan-3-yl)-1,2,4-triazine-6-carboxamide]	200	> 40100	7.6	> 10000
N#Cc1cccn(-c2ccc(N[C@H]3CC[C@H](Nc4ncc(C(=O)NC5COC5)nn4)C3)nc2)c1=O [Example 159, 3-(((1S,3S)-3-((3-Cyano-2-oxo-2H-[1,3′-bipyridin]-6′-yl)amino)cyclopentyl)amino)-N-(oxetan-3-yl)-1,2,4-triazine-6-carboxamide]	100	> 40100	4.1	> 10000
O=C(NC1COC1)c1cnc(N[C@H]2CC[C@H](Nc3ccc(-n4cccc(OC(F)(F)F)c4=O)cn3)C2)nn1 [Example 160, N-(Oxetan-3-yl)-3-(((1S,3S)-3-((2-oxo-3-(trifluoromethoxy)-2H-[1,3′-bipyridin]-6′-yl)amino)cyclopentyl)amino)-1,2,4-triazine-6-carboxamide]	200	> 40100	6.9	> 10000
O=C(NC1COC1)c1cnc(N[C@H]2CC[C@H](Nc3ccc(-n4cccc(C(F)(F)F)c4=O)cn3)C2)nn1 [Example 161, N-(Oxetan-3-yl)-3-(((1S,3S)-3-((2-oxo-3-(trifluoromethyl)-2H-[1,3′-bipyridin]-6′-yl)amino)cyclopentyl)amino)-1,2,4-triazine-6-carboxamide]	100	> 40100	3.8	> 10000
O=c1c(OC(F)F)cccn1-c1ccc(N[C@H]2CC[C@H](Nc3ncc(C4CC4)nn3)C2)nc1 [Example 165, 6′-(((1S,3S)-3-((6-Cyclopropyl-1,2,4-triazin-3-yl)amino)cyclopentyl)amino)-3-(difluoromethoxy)-2H-[1,3′-bipyridin]-2-one]	100	25500	1.3	5100
O=c1ccc(OC(F)F)cn1-c1ccc(N[C@H]2CC[C@H](Nc3ncc(C4CC4)nn3)C2)nc1 [Example 166, 6′-(((1S,3S)-3-((6-Cyclopropyl-1,2,4-triazin-3-yl)amino)cyclopentyl)amino)-5-(difluoromethoxy)-2H-[1,3′-bipyridin]-2-one]	300	38200	7.2	2200
COc1ccn(-c2ccc(N[C@H]3CC[C@H](Nc4ncc(C)nn4)C3)nc2)c(=O)c1 [Example 180, 4-Methoxy-6′-(((1S,3S)-3-((6-methyl-1,2,4-triazin-3-yl)amino)cyclopentyl)amino)-2H-[1,3′-bipyridin]-2-one]	300	> 40100	6	> 10000
Cc1cnc(N[C@H]2CC[C@H](Nc3ccc(-n4ccc(Cl)cc4=O)cn3)C2)nn1 [Example 182, 4-Chloro-6′-(((1S,3S)-3-((6-methyl-1,2,4-triazin-3-yl)amino)cyclopentyl)amino)-2H-[1,3′-bipyridin]-2-one]	600	> 40100	9.4	> 10000
Cc1cnc(N[C@H]2CC[C@H](Nc3ccc(-n4cc(OC(F)F)ccc4=O)cn3)C2)nn1 [Example 185, 5-(Difluoromethoxy)-6′-(((1S,3S)-3-((6-methyl-1,2,4-triazin-3-yl)amino)cyclopentyl)amino)-2H-[1,3′-bipyridin]-2-one]	200	> 40100	13	2420
Cc1cnc(N[C@H]2CC[C@H](Nc3ccc(-n4cccc(-c5cn[nH]c5)c4=O)cn3)C2)nn1 [Example 199, 6′-(((1S,3S)-3-((6-Methyl-1,2,4-triazin-3-yl)amino)cyclopentyl)amino)-3-(1H-pyrazol-4-yl)-2H-[1,3′-bipyridin]-2-one]	100	> 40100	2	> 10000
Cc1cnc(N[C@H]2CC[C@H](Nc3ccc(-n4cccc(-c5c[nH]nn5)c4=O)cn3)C2)nn1 [Example 200, 6′-(((1S,3S)-3-((6-Methyl-1,2,4-triazin-3-yl)amino)cyclopentyl)amino)-3-(1H-1,2,3-triazol-4-yl)-2H-[1,3′-bipyridin]-2-one]	100	> 40100	2.5	> 10000
Cc1cnc(N[C@H]2CC[C@H](Nc3ccc(-n4cc(-c5cnn(C)c5)ccc4=O)cn3)C2)nn1 [Example 201, 6′-(((1S,3S)-3-((6-Methyl-1,2,4-triazin-3-yl)amino)cyclopentyl)amino)-5-(1-methyl-1H-pyrazol-4-yl)-2H-[1,3′-bipyridin]-2-one]	200	> 40100	8.6	2380
Cc1cnc(N[C@H]2CC[C@H](Nc3ccc(-n4cc(-c5cn[nH]c5)ccc4=O)cn3)C2)nn1 [Example 202, 6′-(((1S,3S)-3-((6-Methyl-1,2,4-triazin-3-yl)amino)cyclopentyl)amino)-5-(1H-pyrazol-4-yl)-2H-[1,3′-bipyridin]-2-one]	100	> 40100	3.7	7660
Cc1cnc(N[C@H]2CC[C@H](Nc3ccc(-n4cc(-c5c[nH]nn5)ccc4=O)cn3)C2)nn1 [Example 208, 6′-(((1S,3S)-3-((6-Methyl-1,2,4-triazin-3-yl)amino)cyclopentyl)amino)-5-(1H-1,2,3-triazol-4-yl)-2H-[1,3′-bipyridin]-2-one]	300	> 40100	6.5	1710
Cc1cnc(N[C@H]2CC[C@H](Nc3ccc(-n4c(=O)n(C)c5cc(C#N)ccc54)cn3)C2)nn1 [Example 211, 3-Methyl-1-(6-(((1S,3S)-3-((6-methyl-1,2,4-triazin-3-yl)amino)cyclopentyl)amino)pyridin-3-yl)-2-oxo-2,3-dihydro-1H-benzo[d]imidazole-5-carbonitrile]	100	16500	1.4	> 10000
Cc1cnc(N[C@H]2CC[C@H](Nc3ccc(-n4c(=O)n(C)c5ccc(C#N)nc54)cn3)C2)nn1 [Example 213, 1-Methyl-3-(6-(((1S,3S)-3-((6-methyl-1,2,4-triazin-3-yl)amino)cyclopentyl)amino)pyridin-3-yl)-2-oxo-2,3-dihydro-1H-imidazo[4,5-b]pyridine-5-carbonitrile]	200	> 40100	1.6	> 10000
Cc1cnc(N[C@H]2CC[C@H](Nc3ccc(-n4c(=O)n(C)c5cc(C#N)cnc54)cn3)C2)nn1 [Example 214, 1-Methyl-3-(6-(((1S,3S)-3-((6-methyl-1,2,4-triazin-3-yl)amino)cyclopentyl)amino)pyridin-3-yl)-2-oxo-2,3-dihydro-1H-imidazo[4,5-b]pyridine-6-carbonitrile]	700	> 40100	3.4	> 10000
